Results reported in PubChem BioAssay (NCI).
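Cells were grown in 96-well plates and exposed to each compound for 48 hours at five concentrations; endpoints were interpolated linearly between bracketing concentrations, or set to the highest concentration if not reached. GI50: concentration for 50% inhibition of growth. TGI: concentration producing complete growth inhibition.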

Experiments:
Test in all cases: DTP human tumour cell line panel, 48 h
HT29 colon = test system: HT29 colon
A498 renal = test system: A498 renal
SNB-75 CNS = test system: SNB-75 CNS
SF-539 CNS = test system: SF-539 CNS
OVCAR-3 ovarian = test system: OVCAR-3 ovarian
HL-60(TB) leukemia = test system: HL-60(TB) leukemia
MDA-MB-231 breast = test system: MDA-MB-231 breast
SK-MEL-28 melanoma = test system: SK-MEL-28 melanoma
SN12C renal = test system: SN12C renal
RXF 393 renal = test system: RXF 393 renal

## c1cc(CN2CCCNCCNCCCNCC2)ccc1CN1CCCNCCNCCCNCC1
HT29 colon
  GI50: > 100000 nM
  TGI: > 100 µM
A498 renal
  GI50: > 100000 nM
  TGI: > 100 µM
SNB-75 CNS
  GI50: > 100000 nM
  TGI: > 100 µM
SF-539 CNS
  GI50: > 100000 nM
  TGI: > 100 µM
OVCAR-3 ovarian
  GI50: > 100000 nM
  TGI: > 100 µM
HL-60(TB) leukemia
  GI50: > 100000 nM
  TGI: > 100 µM
MDA-MB-231 breast
  GI50: > 100000 nM
  TGI: > 100 µM
SK-MEL-28 melanoma
  GI50: > 100000 nM
  TGI: > 100 µM
SN12C renal
  GI50: > 100000 nM
  TGI: > 100 µM
RXF 393 renal
  GI50: > 100000 nM
  TGI: > 100 µM

## C=C(C)[C@@H]1C/C=C(/CO)CC[C@H]2O[C@]2(C)CC/C=C(\C)CC1
HT29 colon
  GI50: 14500 nM
  TGI: 31.6 µM
A498 renal
  GI50: 10400 nM
  TGI: 24.3 µM
SNB-75 CNS
  GI50: 12100 nM
  TGI: 31.3 µM
SF-539 CNS
  GI50: 18000 nM
  TGI: 33.7 µM
OVCAR-3 ovarian
  GI50: 22200 nM
  TGI: 42.9 µM
HL-60(TB) leukemia
  GI50: 8120 nM
  TGI: 24 µM
MDA-MB-231 breast
  GI50: 10700 nM
  TGI: 29.7 µM
SK-MEL-28 melanoma
  GI50: 14300 nM
  TGI: 32.1 µM
SN12C renal
  GI50: 14600 nM
  TGI: 29 µM
RXF 393 renal
  GI50: 18300 nM
  TGI: 33.4 µM

## O=C(O)CNc1ccc(Cl)c(Cl)c1
HT29 colon
  TGI: > 100 µM
A498 renal
  TGI: 86.5 µM
SNB-75 CNS
  TGI: 94.1 µM
SF-539 CNS
  TGI: > 100 µM
OVCAR-3 ovarian
  TGI: 82.4 µM
HL-60(TB) leukemia
  TGI: 78.5 µM
MDA-MB-231 breast
  TGI: > 100 µM
SN12C renal
  TGI: 94.3 µM
RXF 393 renal
  TGI: > 100 µM

## Nc1ncn(C2OC(COP(=O)(O)O)C(O)C2O)c(=O)n1 (stereo unspecified)
HT29 colon
  TGI: > 100 µM
A498 renal
  TGI: > 100 µM
SNB-75 CNS
  TGI: > 100 µM
SF-539 CNS
  TGI: > 100 µM
OVCAR-3 ovarian
  TGI: > 100 µM
HL-60(TB) leukemia
  TGI: > 100 µM
MDA-MB-231 breast
  TGI: > 100 µM
SK-MEL-28 melanoma
  TGI: > 100 µM
SN12C renal
  TGI: > 100 µM
RXF 393 renal
  TGI: > 100 µM

## O=C(Nc1ccc2ncnc(Nc3ccc(Oc4cccc(F)c4)c(Cl)c3)c2c1)c1ccc(CN2CCOCC2)cc1
HT29 colon
  GI50: 2970 nM
  TGI: 11.7 µM
A498 renal
  GI50: 3280 nM
  TGI: 65.6 µM
SNB-75 CNS
  GI50: 1970 nM
  TGI: 9.22 µM
SF-539 CNS
  GI50: 2510 nM
  TGI: 6.99 µM
OVCAR-3 ovarian
  GI50: 2160 nM
  TGI: 7 µM
HL-60(TB) leukemia
  GI50: 2690 nM
  TGI: 7.88 µM
MDA-MB-231 breast
  GI50: 2680 nM
  TGI: 9.03 µM
SK-MEL-28 melanoma
  GI50: 2620 nM
  TGI: 9.38 µM
SN12C renal
  GI50: 2600 nM
  TGI: > 100 µM
RXF 393 renal
  GI50: 2020 nM
  TGI: 5.83 µM

## O=C1Nc2ccccc2/C1=C\c1cccc(/C=C2/C(=O)Nc3ccccc32)n1
HT29 colon
  GI50: 226 nM
  TGI: 0.529 µM
A498 renal
  GI50: 1500 nM
  TGI: 2.9 µM
SNB-75 CNS
  GI50: 1320 nM
  TGI: 3.46 µM
SF-539 CNS
  GI50: 966 nM
  TGI: 2.23 µM
OVCAR-3 ovarian
  GI50: 254 nM
  TGI: 0.683 µM
HL-60(TB) leukemia
  GI50: 452 nM
MDA-MB-231 breast
  GI50: 1250 nM
  TGI: 2.77 µM
SK-MEL-28 melanoma
  GI50: 218 nM
  TGI: 0.468 µM
SN12C renal
  GI50: 357 nM
  TGI: 1.36 µM
RXF 393 renal
  GI50: 248 nM
  TGI: 0.61 µM

## COC12C=C/C(=C(/C(=O)OCCSc3ccnn3C)C(=O)CCCCCCCCC3(OC)C=C/C(=C(/C(=O)OCCSc4ccnn4C)C(=O)CCCCCCCC1)O3)O2
HT29 colon
  GI50: 1250 nM
  TGI: > 32.5 µM
A498 renal
  GI50: 645 nM
  TGI: 2.2 µM
SNB-75 CNS
  GI50: 999 nM
  TGI: 4.9 µM
SF-539 CNS
  GI50: 1160 nM
  TGI: 5.24 µM
OVCAR-3 ovarian
  GI50: 966 nM
  TGI: 2.77 µM
HL-60(TB) leukemia
  GI50: 929 nM
  TGI: 2.63 µM
MDA-MB-231 breast
  GI50: 1050 nM
  TGI: 3.06 µM
SK-MEL-28 melanoma
  GI50: 1090 nM
  TGI: 8.24 µM
SN12C renal
  GI50: 1050 nM
  TGI: 5.64 µM
RXF 393 renal
  GI50: 665 nM
  TGI: 1.17 µM

## CN(C)C[C@H]1CCn2c(c(C3=C(c4cn(C)c5ccccc45)C(=O)NC3=O)c3ccccc32)C1
HT29 colon
  GI50: 3450 nM
  TGI: 11.5 µM
A498 renal
  GI50: 3840 nM
  TGI: 9.08 µM
SNB-75 CNS
  GI50: 562 nM
  TGI: 5.16 µM
SF-539 CNS
  GI50: 4010 nM
  TGI: 7.73 µM
OVCAR-3 ovarian
  GI50: 4540 nM
  TGI: 8.97 µM
HL-60(TB) leukemia
  GI50: 5650 nM
  TGI: 11.3 µM
MDA-MB-231 breast
  GI50: 3960 nM
  TGI: 10.3 µM
SK-MEL-28 melanoma
  GI50: 4250 nM
  TGI: 8.02 µM
SN12C renal
  GI50: 4390 nM
  TGI: 9.66 µM
RXF 393 renal
  GI50: 3670 nM
  TGI: 7.18 µM

## Cc1cn(CCC(N)C(=O)O)c(=O)[nH]c1=O (stereo unspecified)
HT29 colon
  TGI: > 100 µM
A498 renal
  TGI: > 100 µM
SNB-75 CNS
  TGI: > 100 µM
SF-539 CNS
  TGI: > 100 µM
OVCAR-3 ovarian
  TGI: > 100 µM
HL-60(TB) leukemia
  TGI: > 100 µM
MDA-MB-231 breast
  TGI: > 100 µM
SK-MEL-28 melanoma
  TGI: > 100 µM
SN12C renal
  TGI: > 100 µM
RXF 393 renal
  TGI: > 100 µM

## COc1cc(OC)c(/C=C/C(=O)c2ccc(Nc3ncnc4ccccc34)cc2)c(OC)c1
HT29 colon
  GI50: 364 nM
  TGI: 1.39 µM
A498 renal
  GI50: 282 nM
  TGI: 2.13 µM
SNB-75 CNS
  GI50: 305 nM
  TGI: 1.55 µM
SF-539 CNS
  GI50: 837 nM
  TGI: 2.31 µM
OVCAR-3 ovarian
  GI50: 365 nM
  TGI: 1.43 µM
HL-60(TB) leukemia
  GI50: 389 nM
  TGI: 2.19 µM
MDA-MB-231 breast
  GI50: 1430 nM
  TGI: 4.11 µM
SK-MEL-28 melanoma
  GI50: 940 nM
  TGI: 3.03 µM
SN12C renal
  GI50: 1660 nM
  TGI: 10 µM
RXF 393 renal
  GI50: 488 nM
  TGI: 1.95 µM

## CC/C=C\C[C@H](O)C/C=C1/C(=O)C=C[C@@H]1C/C=C\CCCC(=O)OC(C)C
HT29 colon
  GI50: 1650 nM
  TGI: 3.21 µM
A498 renal
  GI50: 3000 nM
  TGI: 8.12 µM
SNB-75 CNS
  GI50: 4780 nM
  TGI: 19.7 µM
OVCAR-3 ovarian
  GI50: 483 nM
  TGI: 1.71 µM
HL-60(TB) leukemia
  GI50: 824 nM
  TGI: 6.71 µM
MDA-MB-231 breast
  GI50: 3170 nM
  TGI: 9.77 µM
SK-MEL-28 melanoma
  GI50: 1410 nM
  TGI: 3.05 µM
SN12C renal
  GI50: 2420 nM
  TGI: 6.35 µM
RXF 393 renal
  GI50: 1760 nM
  TGI: 3.27 µM
